For test [1], the system named is HaCat cells. Briefly: m6A methylation level of human HaCat keratinocytes, EpiQuik m6A RNA methylation quantification kit (Example 20). Format: cell-based. Conditions: for abnormal increase in the RNA m6A level of human keratinocytes caused by chemotherapeutic drugs and multikinase inhibitors: 400 nM compound after 50 nM drug; for m6A fold change relative to control group 1: HaCat cells, 24 hours. The procedure: HaCat cells were cultured in a DMEM culture medium containing 10% fetal bovine serum, 100 U/mL penicillin, and 100 μg/mL streptomycin. Culture dishes were placed in an incubator containing 5% CO2 for culture at 37° C. for 24 hours. An equal volume of DMSO was added in control group 1, 50 nM sorafenib, capecitabine, docetaxel, and osimertinib were respectively added in control groups A, B, C, and D, and 400 nM test compounds or nicotinamide were respectively added in sample groups A1-17, B1-17, C1-17, and D1-17 after the addition of 50 nM corresponding compounds. The cells were continuously cultured for 24 hours, washed with PBS, and then collected by high-speed centrifugation. Total RNA was extracted using a Trizol reagent (Sigma Aldrich), and RNA m6A methylation of a sample was quantitatively detected using an EpiQuik m6A RNA methylation quantification kit. The concentrations of positive control samples for a standard curve were 0.01 ng/μl, 0.02 ng/μl, 0.05 ng/μl, 0.1 ng/μl, 0.2 ng/μl, and 0.5 ng/μl. The absorbance at 450 nm was read using a microplate reader (Tecan GENios). A quantitative calculation formula for m6A is as follows:
m6A (ng)=(absorbance of sample well−absorbance of background well)/slope of standard curve m6A (%)=m6A (ng)/RNA amount of sample (ng)*100%.

Test [2] has as its system paw plantar skin of rats. Briefly: Rat models with hand-foot skin reaction, topical ointment (Example 22). Format: in vivo, SD rats. Conditions: for Incidence rate: 30 days; for incidence rate of hand-foot skin reaction at a drug application site: compounds at a mass content of 1% in ointment; for incidence rate of hand-foot skin reaction in all paws of the rats: compounds at mass contents of 3% and 10% in ointment; for differentiation of keratinocytes both in vitro and in vivo: summary of Examples 21 and 22. As to the method:
After adaptive feeding for one week, SD rats (with a body weight of approximately 200 g) were randomly divided into groups according to the body weight, with 12 rats in each group. Modeling drugs (including sorafenib, erlotinib, afatinib, and osimertinib) were respectively dissolved in a solution containing 5% of DMSO, 45% of PEG400, and 50% of H2O, and the modeling drugs were diluted to required concentrations and then administered once daily by gavage at doses shown in Table 3. After administration by gavage for 1 hour, 0.05 g of ointments containing different mass proportions of test compounds were evenly applied to left paws of the rats, a blank matrix ointment was applied to right paws of the rats to serve as a self-control, and no ointment was applied to the rats in a blank control group. After drug application, four limbs were continuously immobilized for 2 hours, then wiped with clean water to remove the residual drugs, removed from immobilization, and restored to free movement. The modeling drugs, the blank matrix ointment, and the ointments containing the test compounds were all administered once daily. After continuous administration for 30 days, the rats were euthanized, and paw plantar skin tissues were collected, fixed in 10% neutral formalin, […]. The ointments for the test compounds were prepared by mixing the compounds, white beeswax, white petrolatum, and light liquid paraffin in specific ratios (weight ratios of 3 ointments were respectively 1:18:58:23, 3:18:57:22, and 10:20:40:30). The blank matrix ointment was prepared by mixing white beeswax, white petrolatum, and light liquid paraffin in a specific ratio (weight ratio of 18:60:22).
Tissue staining: After dewaxing and rehydration, the paw plantar skin tissue sections of the above rats were stained in a hematoxylin solution for several minutes, cleaned, and placed in 1% acid alcohol for soaking until the sections faded to light blue-red. After cleaning with running water for 5 minutes, the sections were stained with eosin for 2-3 minutes, cleaned to remove excess dyes, dehydrated, then permeabilized by adding xylene for several minutes, and sealed and fixed with a neutral resin. The stratum corneum was observed under an optical microscope, and the thickness of the epidermal stratum corneum was measured using Dmetrix software.
Immunohistochemical staining: After dewaxing and hydration, the paw plantar skin tissue sections of the above rats were incubated with 3% H2O2 at room temperature for 30 minutes and blocked with 10% goat serum for 30 minutes after antigen retrieval. A KRT1 antibody (Abcam, ab93652) and a Loricrin antibody (Abcam, ab183646) were added dropwise, the sections were incubated overnight at 4° C., and an HRP secondary antibody (ZSGB-BIO, PV-6001) and a DAB kit (ZSG-BIO, ZLI9017) were added for color development. The sections were re-stained with hematoxylin, cleaned, and sealed and fixed with a neutral resin, and the expression amounts of KRT1 and Loricrin were observed under an optical microscope.
An incidence rate calculation method involves a proportion of animals in each group meeting the above criteria for determining successful modeling, that is, incidence rate=(number of successfully modeled rats/total number of rats in the group)*100%. […]

Where [3] appears, read: 50 nM capecitabine + 400 nM test compound.
[4] abbreviates: 50 nM docetaxel + 400 nM test compound.
The mark [5] stands for this setting: 50 nM osimertinib + 400 nM test compound.
The mark [6] stands for this setting: 50 nM sorafenib + 400 nM test compound.
Setting [7] is: afatinib 50 mg/kg, 1% compound ointment on left paw, left paw.
Where [8] appears, read: afatinib 50 mg/kg, 1% compound ointment on left paw, right paw (blank matrix ointment).
Where [9] appears, read: afatinib 50 mg/kg, 3% compound ointment on left paw, left paw.
[10] abbreviates: afatinib 50 mg/kg, 3% compound ointment on left paw, right paw (blank matrix ointment).
The mark [11] stands for this setting: afatinib 50 mg/kg, 10% compound ointment on left paw, left paw.
Where [12] appears, read: afatinib 50 mg/kg, 10% compound ointment on left paw, right paw (blank matrix ointment).
The mark [13] stands for this setting: erlotinib 70 mg/kg, 1% compound ointment on left paw, left paw.
The mark [14] stands for this setting: erlotinib 70 mg/kg, 1% compound ointment on left paw, right paw (blank matrix ointment).
Setting [15] is: erlotinib 70 mg/kg, 3% compound ointment on left paw, left paw.
Where [16] appears, read: erlotinib 70 mg/kg, 3% compound ointment on left paw, right paw (blank matrix ointment).
The mark [17] stands for this setting: erlotinib 70 mg/kg, 10% compound ointment on left paw, left paw.
[18] abbreviates: erlotinib 70 mg/kg, 10% compound ointment on left paw, right paw (blank matrix ointment).
Where [19] appears, read: osimertinib 60 mg/kg, 1% compound ointment on left paw, left paw.
[20] abbreviates: osimertinib 60 mg/kg, 1% compound ointment on left paw, right paw (blank matrix ointment).
Where [21] appears, read: osimertinib 60 mg/kg, 3% compound ointment on left paw, right paw (blank matrix ointment).
The mark [22] stands for this setting: osimertinib 60 mg/kg, 10% compound ointment on left paw, left paw.
Setting [23] is: osimertinib 60 mg/kg, 10% compound ointment on left paw, right paw (blank matrix ointment).
Where [24] appears, read: paw plantar skin of modeled rats, topical ointment.
Setting [25] is: sorafenib 100 mg/kg, 1% compound ointment on left paw, left paw.
[26] abbreviates: sorafenib 100 mg/kg, 1% compound ointment on left paw, right paw (blank matrix ointment).
Setting [27] is: sorafenib 100 mg/kg, 3% compound ointment on left paw, left paw.
[28] abbreviates: sorafenib 100 mg/kg, 3% compound ointment on left paw, right paw (blank matrix ointment).
The mark [29] stands for this setting: sorafenib 100 mg/kg, 10% compound ointment on left paw, left paw.
The mark [30] stands for this setting: sorafenib 100 mg/kg, 10% compound ointment on left paw, right paw (blank matrix ointment).

Regarding `NC(=O)C1CCCc2c1[nH]c1ccc(Cl)cc21` (stereo not drawn) [Compound 2, 6-chloro-2,3,4,9-tetrahydro-1H-carbazole-1-carboxamide], the “abnormal increase in the RNA m6A level of human keratinocytes caused by chemotherapeutic drugs and multikinase inhibitors” value in test [1] is listed as “effectively inhibit”. The “m6A fold change relative to control group 1” value in test [1] (setting [3]) was determined as 2.3; in test [1] (setting [4]), 3.3; in test [1] (setting [5]), 2.2; in test [1] (setting [6]), 2.4. For the same compound, the Incidence rate in test [2] (setting [7]) was 2/12 (17%); in test [2] (setting [8]) it was 7/12 (58%); in test [2] (setting [9]) it was 2/12 (17%); in test [2] (setting [10]) it was 5/12 (42%); in test [2] (setting [11]), 1/12 (8%); in test [2] (setting [12]), 5/12 (42%). Further, the Incidence rate was 3/12 (25%) in test [2] (setting [13]); 10/12 (83%) in test [2] (setting [14]); 2/12 (17%) in test [2] (setting [15]); 4/12 (33%) in test [2] (setting [16]); 1/12 (8%) in test [2] (setting [17]); 4/12 (33%) in test [2] (setting [18]). The Incidence rate in test [2] (setting [19]) is reported as 2/12 (17%); in test [2] (setting [20]), 9/12 (75%); in test [2] (setting [21]), 4/12 (33%); in test [2] (setting [22]), 0/12 (0%); in test [2] (setting [23]) it was 3/12 (25%); in test [2] (setting [25]) it was 3/12 (25%). In addition, the Incidence rate in test [2] (setting [26]) is on record as 8/12 (67%); in test [2] (setting [27]), 1/12 (8%); in test [2] (setting [28]), 5/12 (42%); in test [2] (setting [29]) it was 0/12 (0%); in test [2] (setting [30]), 5/12 (42%). Moreover, the “incidence rate of hand-foot skin reaction at a drug application site” value in test [2] is listed as “significantly decrease”. Also, the “incidence rate of hand-foot skin reaction in all paws of the rats” value in test [2] is on record as “significantly decrease”. Further, the “formation of blisters, inflammatory cell infiltration in the dermis and skin congestion (pathological scoring)” value in test [2] (setting [24]) is reported as “effectively improve”. Also, the “differentiation of keratinocytes both in vitro and in vivo” value in test [2] was “effectively inhibit”. In addition, the “stratum corneum thickness of the paw plantar skin of the modeled rats” value in test [2] (topical ointment) is recorded as “effectively decrease”.
For `NC(=O)[C@H]1CCCc2c1[nH]c1ccc(Cl)cc21` [Compound 2b, (S)-6-chloro-2,3,4,9-tetrahydro-1H-carbazole-1-carboxamide], in test [1], the “abnormal increase in the RNA m6A level of human keratinocytes caused by chemotherapeutic drugs and multikinase inhibitors” value is listed as “effectively inhibit”. The “m6A fold change relative to control group 1” value in test [1] (setting [3]) stood at 1.1; in test [1] (setting [4]), 1.0; in test [1] (setting [5]), 1.2; in test [1] (setting [6]) it was 1.4. In addition, the Incidence rate in test [2] (setting [7]) is given as 3/12 (25%); in test [2] (setting [8]), 9/12 (75%); in test [2] (setting [9]), 2/12 (17%); in test [2] (setting [10]), 4/12 (33%); in test [2] (setting [11]) it was 0/12 (0%); in test [2] (setting [12]) it was 3/12 (25%). The Incidence rate in test [2] (setting [13]) is 3/12 (25%); in test [2] (setting [14]) it was 10/12 (83%); in test [2] (setting [15]), 2/12 (17%); in test [2] (setting [16]), 5/12 (42%); in test [2] (setting [17]) it was 1/12 (8%); in test [2] (setting [18]), 4/12 (33%). Besides, the Incidence rate in test [2] (setting [19]) was 2/12 (17%); in test [2] (setting [20]), 8/12 (67%); in test [2] (osimertinib 60 mg/kg, 3% compound ointment on left paw, left paw), 2/12 (17%); in test [2] (setting [21]), 4/12 (33%); in test [2] (setting [22]), 0/12 (0%); in test [2] (setting [23]) it was 3/12 (25%). In addition, the Incidence rate in test [2] (setting [25]) was 2/12 (17%); in test [2] (setting [26]) it was 9/12 (75%); in test [2] (setting [27]), 2/12 (17%); in test [2] (setting [28]), 4/12 (33%); in test [2] (setting [29]) it was 0/12 (0%); in test [2] (setting [30]) it was 4/12 (33%). In addition, in test [2], the “incidence rate of hand-foot skin reaction at a drug application site” value was “significantly decrease”. In test [2], the “incidence rate of hand-foot skin reaction in all paws of the rats” value is on record as “significantly decrease”. In addition, the “formation of blisters, inflammatory cell infiltration in the dermis and skin congestion (pathological scoring)” value in test [2] (setting [24]) is given as “effectively improve”. The “formation of blisters, inflammatory cell infiltration in the dermis and skin congestion (tissue staining)” value in test [2] (setting [24]) is “effectively improve”. Further, in test [2], the “differentiation of keratinocytes both in vitro and in vivo” value is “effectively inhibit”. Besides, in test [2] (topical ointment), the “stratum corneum thickness of the paw plantar skin of the modeled rats” value is “effectively decrease”.
In the case of `NC(=O)c1cccnc1` [Nicotinamide, nicotinamide], the “m6A fold change relative to control group 1” value was determined as 4.5 in test [1] (setting [3]), 5.4 in test [1] (setting [4]), 5.0 in test [1] (setting [5]) and 4.7 in test [1] (setting [6]).
